Ten compounds from PubChem BioAssay (NCI) can be followed below.

Among the test systems are CCRF-CEM leukemia; HT29 colon; MALME-3M melanoma; NCI-H23 lung; ACHN renal; 786-0 renal; OVCAR-3 ovarian; UACC-62 melanoma; SF-539 CNS; M14 melanoma.
What all share (experiment): growth of human tumour cells (NCI), 48 h

Each structure is given as a SMILES string. “And” between values parts separate entries of the source, which are not always exact repeats. Equal values may be shown once.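 Assay format: 96-well plates, 48-hour exposure. At the GI50, growth is halved. At the TGI there is no net growth.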

`O=c1c2ccccc2[nH]c2c(O)ccc(O)c12`: the TGI in the assay on CCRF-CEM leukemia is > 88.6 µM; in the assay on HT29 colon it was > 84.9 µM; in the assay on MALME-3M melanoma, 59.7 µM; in the assay on NCI-H23 lung, 71.5 µM; with ACHN renal it was 33.7 µM; in the assay with 786-0 renal, 38.8 µM. Moreover, the TGI in the assay with OVCAR-3 ovarian was found to be 36.1 µM; in the assay with UACC-62 melanoma it was 33.5 µM; with SF-539 CNS it was 75.3 µM; in the assay with M14 melanoma, 30.3 µM.

As to `C/C(=N\NC(=O)C[N+](C)(C)C)c1sc(-c2cccnc2)nc1C`, the TGI in the assay on CCRF-CEM leukemia, in the assay on HT29 colon, in the assay with MALME-3M melanoma, with NCI-H23 lung, in the assay on ACHN renal and in the assay with 786-0 renal was > 100 µM throughout. The TGI in the assay on OVCAR-3 ovarian, in the assay on UACC-62 melanoma, in the assay with SF-539 CNS and in the assay on M14 melanoma was > 100 µM throughout.

On to `Cc1ccc(Nc2cc(Cl)c([N+](=O)[O-])cc2[N+](=O)[O-])cc1`, for which the GI50 with CCRF-CEM leukemia is 1.96 µM; with HT29 colon it was 3.04 µM; in the assay with MALME-3M melanoma it was 5.72 µM; with NCI-H23 lung it was 3.66 µM; in the assay on ACHN renal it was 4.73 µM; in the assay with 786-0 renal, 3.97 µM. Moreover, the GI50 with OVCAR-3 ovarian was 3.33 µM; in the assay with UACC-62 melanoma it was 4.13 µM; in the assay on SF-539 CNS it was 4 µM; in the assay with M14 melanoma, 3.96 µM. Besides, the TGI with CCRF-CEM leukemia was determined as 19.8 µM; with HT29 colon, 8.07 µM; with MALME-3M melanoma it was 14 µM; in the assay on NCI-H23 lung it was 14.2 µM; in the assay with ACHN renal it was 16.2 µM; in the assay with 786-0 renal, 14 µM. Besides, the TGI in the assay with OVCAR-3 ovarian stood at 7.85 µM; with UACC-62 melanoma, 15.6 µM; with SF-539 CNS, 15.3 µM; with M14 melanoma, 15.6 µM.

As for `Nc1ccccc1C#C/C=C\C#CC#C/C=C\C#Cc1ccccc1N`, the GI50 was 0.0892 µM in the assay on CCRF-CEM leukemia; 8.36 µM with HT29 colon; 11.7 µM with MALME-3M melanoma; 5.17 µM with NCI-H23 lung; 5.38 µM with ACHN renal; 9.76 µM in the assay with 786-0 renal. Also, the GI50 in the assay on OVCAR-3 ovarian is 2.78 µM; in the assay on UACC-62 melanoma, 2.18 µM; with SF-539 CNS, 3.96 µM. The TGI was 16 µM in the assay with CCRF-CEM leukemia; 32.7 µM with HT29 colon; 67.1 µM in the assay with MALME-3M melanoma; 23.3 µM in the assay with NCI-H23 lung; 40.4 µM in the assay on ACHN renal; 24.6 µM in the assay with 786-0 renal. The TGI with OVCAR-3 ovarian turned out to be 14 µM; in the assay with UACC-62 melanoma, 13.1 µM; in the assay on SF-539 CNS, 16.6 µM.

Take `O=C1/C(=C/c2ccc3c(c2)OCCO3)CCC/C1=C\c1ccc2c(c1)OCCO2`: the TGI with CCRF-CEM leukemia is > 100 µM; in the assay with HT29 colon, 52 µM; in the assay on MALME-3M melanoma, > 100 µM; with ACHN renal, > 100 µM; in the assay with 786-0 renal it was > 100 µM; in the assay with OVCAR-3 ovarian it was 44.6 µM. In addition, the figures for the TGI in the assay on UACC-62 melanoma, with SF-539 CNS and in the assay with M14 melanoma were 61.3 µM, 38.6 µM and 41.3 µM, respectively.

Consider `CCCCCCCCCC[C@@H](O)[C@@H]1CC[C@@H]([C@@H]2CC[C@@H]([C@@H](O)CCCCCCCCCC[C@H](O)CC3=CC(C)OC3=O)O2)O1` (stereo not given in full), for which the GI50 in the assay with CCRF-CEM leukemia is 2.78 µM; in the assay with HT29 colon it was 26.4 µM; in the assay on MALME-3M melanoma it was 2.13 µM; in the assay on ACHN renal, 2.26 µM; in the assay on 786-0 renal it was 2.49 µM; in the assay with OVCAR-3 ovarian it was 1.47 µM. Moreover, the GI50 with UACC-62 melanoma was 7.27 µM; in the assay with M14 melanoma it was 5.47 µM. Moreover, the TGI in the assay with MALME-3M melanoma was 3.86 µM and 7.42 µM; with ACHN renal, 5.75 µM and 20.7 µM; in the assay on 786-0 renal it was 7.95 µM and 12.1 µM; in the assay on OVCAR-3 ovarian, 3.34 µM and 22.3 µM; in the assay on SF-539 CNS, 9.39 µM and 13.3 µM; with M14 melanoma it was 5.16 µM and 29.6 µM.

Turning to `O=C1CC[C@H](N2Cc3c(OCc4ccc(CN5CCOCC5)cc4)cccc3C2=O)C(=O)N1`, the GI50 with CCRF-CEM leukemia, in the assay on HT29 colon, in the assay with MALME-3M melanoma, in the assay on ACHN renal, in the assay on 786-0 renal and in the assay on OVCAR-3 ovarian was > 100 µM in each case. Moreover, the GI50 in the assay on UACC-62 melanoma, in the assay with SF-539 CNS and in the assay with M14 melanoma was > 100 µM throughout. Moreover, the TGI in the assay with CCRF-CEM leukemia, with HT29 colon, with MALME-3M melanoma, with ACHN renal, in the assay with 786-0 renal and in the assay on OVCAR-3 ovarian was > 100 µM throughout. Further, the TGI with UACC-62 melanoma, with SF-539 CNS and in the assay on M14 melanoma was > 100 µM throughout.

`O=C(NCCc1ccccc1)Nc1ccc2cc3ccc(NC(=O)NCCc4ccccc4)cc3nc2c1`: the GI50 is 0.301 µM in the assay with CCRF-CEM leukemia; 1.39 µM with HT29 colon; 0.59 µM in the assay with MALME-3M melanoma; 0.857 µM in the assay with NCI-H23 lung; 20.9 µM in the assay with ACHN renal; 2.07 µM with 786-0 renal. In addition, the results for the GI50 with OVCAR-3 ovarian, in the assay on UACC-62 melanoma and in the assay with SF-539 CNS were 1.04 µM, 1.29 µM and 1.33 µM, respectively. For the same compound, the TGI with CCRF-CEM leukemia is 0.945 µM; in the assay with HT29 colon it was 3.56 µM; in the assay on MALME-3M melanoma, 1.97 µM; in the assay on NCI-H23 lung it was 2.48 µM; in the assay on ACHN renal it was > 100 µM; with 786-0 renal it was 6.93 µM. Moreover, the TGI in the assay on OVCAR-3 ovarian came to 2.34 µM; with UACC-62 melanoma, 2.74 µM; with SF-539 CNS it was 2.7 µM.

`CCO/S(=N/S(=O)(=O)c1ccccc1)c1ccccc1[N+](=O)[O-]` (stereo not given): the TGI with CCRF-CEM leukemia, in the assay with HT29 colon, in the assay with MALME-3M melanoma, in the assay with NCI-H23 lung, in the assay with 786-0 renal and with OVCAR-3 ovarian was > 100 µM in each case. Besides, the TGI in the assay with UACC-62 melanoma, with SF-539 CNS and in the assay on M14 melanoma was > 100 µM each time.

For the compound `Cc1coc2c1C(=O)C(=O)c1ccccc1-2`, the TGI stood at 5.49 µM in the assay on CCRF-CEM leukemia; 3.53 µM in the assay on HT29 colon; 2.96 µM in the assay with MALME-3M melanoma; 4.09 µM with NCI-H23 lung; 3.24 µM with 786-0 renal; 3.29 µM in the assay on OVCAR-3 ovarian. The TGI in the assay with UACC-62 melanoma was 3.25 µM; in the assay with SF-539 CNS it was 2.88 µM; in the assay with M14 melanoma, 2.63 µM.
